This passage reports EC (maximum kinetin efficacy) and Emax results from patent US11702417B2, “Compounds for improving mRNA splicing” (The General Hospital Corporation, priority 2015, dated 2023).

Structures are written as SMILES.

This test deals with FD (familial dysautomonia) IKBKAP minigene, exon 20 inclusion, in HEK293T cells. As to the kind of experiment: Primary splicing assay (FD IKBKAP minigene, Firefly/Renilla luciferase reporter in HEK293T). It is filed as cell-based, human. The following applies: Homo sapiens, HEK-293T, Firefly/Renilla ratio, 24 hours of treatment; for EC (maximum kinetin efficacy): HEK293T, read-out: ECk (compound concentration at which the maximum kinetin efficacy (200 μM) is reached); for Emax: max efficacy in Primary Assay, kinetin and DMSO as positive and negative controls, read-out: Emax (%).

One may read the Emax as the size of the effect at its maximum, as opposed to the concentration needed. As to `Clc1nc(NCc2nccs2)c2nc(OCc3nccs3)[nH]c2n1` [(329)], the EC (maximum kinetin efficacy) is 1.97 µM and the maximum response (Emax) was found to be 209%. As for `Clc1cc(NCc2ccncn2)n2nccc2n1` [(330)], the Emax amounted to 20%. With `FC(F)(F)COc1nc2c(NCc3ccncn3)nc(Cl)nc2[nH]1` [(331)], the EC (maximum kinetin efficacy) came to 0.69 µM and the Emax was 209%. Regarding `Clc1nc(NCc2nccs2)c2nc(OCC3CCCC3)[nH]c2n1` [(332)], the EC (maximum kinetin efficacy) was 0.78 µM and the Emax came out at 189%. On to `Clc1nc(NCc2ccco2)c2nc(OC3CNC3)[nH]c2n1` [(333)], for which the Emax was determined as 51%. Consider `Clc1nc(NCc2ccncc2)c2nc(OCC3CCCC3)[nH]c2n1` [(334)], for which the EC (maximum kinetin efficacy) worked out at 0.87 µM and the Emax worked out at 177%. As for `CCCOc1nc2nc(Cl)nc(NCc3nccs3)c2n1C` [(335)], the Emax was determined as 35%. Same read-out and setting: for `CCCOc1nc2nc(Cl)nc(NCc3ccncc3)c2n1C` [(336)] the value was 20%; for `CCCOc1nc2nc(Cl)nc(NCc3ccncn3)c2n1C` [(337)], 23%.

For `Clc1nc(NCc2ccco2)c2nc(OCC3CCCC3)[nH]c2n1` [(338)], the EC (maximum kinetin efficacy) came to 1.1 µM and the maximum response (Emax) is 222%.

Consider `CCCOc1nc2c(NCc3ccncc3)nc(Cl)nc2n1CCO` [(339)], for which the EC (maximum kinetin efficacy) turned out to be 1.31 µM and the Emax was found to be 188%. Turning to `Clc1nc(NCc2ccncn2)c2nc(OCc3nccs3)[nH]c2n1` [(340)], the EC (maximum kinetin efficacy) turned out to be 0.95 µM and the maximum response (Emax) was determined as 220%.

For `Clc1nc(NCc2nccs2)c2nc(OCC3CCC3)sc2n1` [(341)], the EC (maximum kinetin efficacy) is 4.16 µM and the Emax was determined as 155%.

As to `CSc1nc(NCc2nccs2)n2ncnc2n1` [(342)], the Emax stood at 16%. Turning to `O=c1[nH]c2c(NCc3nccs3)nc(Cl)nc2n1C1CCCCO1` (centres unmarked) [(344)], the Emax is 18.4%. For the compound `Clc1nc(NCc2ccccn2)c2cc[nH]c2n1` [(350)], the maximum response (Emax) is 49.5%.

With `COc1nc2c(N(C)Cc3nccs3)nc(Cl)nc2[nH]1` [(351)], the Emax came to 22%. Take `Fc1ccccc1CNc1nc(Cl)nc2[nH]cnc12` [(352)]: the Emax is 25%.

`Clc1nc(NCc2cnccn2)c2cc[nH]c2n1` [(353)]: the maximum response (Emax) was found to be 78%. Take `Fc1ccccc1CNc1nc(Cl)nc2[nH]ccc12` [(354)]: the maximal response (Emax) was 57.5%.

Turning to `Clc1nc(NCc2cccnc2)c2cc[nH]c2n1` [(355)], the Emax came out at 26%. As for `Clc1nc(NCc2ccccn2)c2nc[nH]c2n1` [(356)], the Emax turned out to be 17%. As for `CC(Nc1nc(Cl)nc2[nH]ccc12)c1ccncc1` (centres unmarked) [(359)], the Emax amounted to 31.5%. For `Cn1cccc1CNc1nc(Cl)nc2[nH]ccc12` [(360)], the maximal response (Emax) is 12.3%. Consider `Clc1nc(NCc2ncccn2)c2cc[nH]c2n1` [(361)], for which the maximal response (Emax) is 9.8%. In the case of `CN(Cc1nccs1)c1nc(Cl)nc2[nH]ccc12` [(363)], the maximum response (Emax) turned out to be 53.2%.

As to `CC(Nc1nc(Cl)nc2[nH]ccc12)c1nccs1` (centres unmarked) [(364)], the Emax came out at 18.2%. Turning to `COc1nc(NCc2ccco2)c2nc(OC)[nH]c2n1` [(365)], the maximum response (Emax) was determined as 22.4%. Regarding `CC(Nc1nc(Cl)nc2[nH]cnc12)c1ccncc1` (centres unmarked) [(366)], the Emax was 19.2%.

For `Fc1nc(NCc2nccs2)c2nc[nH]c2n1` [(367)], the Emax came out at 94%.

In the case of `CC(Nc1nc(Cl)nc2[nH]cnc12)c1nccs1` (centres unmarked) [(368)], the maximal effect (Emax) turned out to be 2.4%.

For `CN(Cc1ccncc1)c1nc(Cl)nc2[nH]ccc12` [(369)], the maximal response (Emax) was determined as 57.8%.

In the case of `COc1nc2c(NC(C)c3nccs3)nc(Cl)nc2[nH]1` (centres unmarked) [(370)], the Emax was found to be 33%.

As for `Fc1nc(NCc2ccncc2)c2nc[nH]c2n1` [(371)], the Emax amounted to 82%. For the compound `Clc1nc(NCc2cncs2)c2cc[nH]c2n1` [(373)], the maximum response (Emax) stood at 25.1%. In the case of `COc1nc2c(NCc3cnccn3)nc(Cl)nc2[nH]1` [(374)], the Emax was found to be 34.2%.

For the compound `COc1nc2c(NCc3cscn3)nc(Cl)nc2[nH]1` [(375)], the EC (maximum kinetin efficacy) was 2.18 µM and the Emax amounted to 134%. In the case of `COc1nc2c(NCc3cncs3)nc(Cl)nc2[nH]1` [(376)], the Emax came out at 23.5%.

For `O=c1[nH]c2nc(Cl)nc(NCc3nccs3)c2[nH]1` [(377)], the EC (maximum kinetin efficacy) is 7.21 µM and the maximal response (Emax) worked out at 101%. For the compound `Clc1nc(NCc2cncs2)c2nc[nH]c2n1` [(378)], the Emax was 31.8%. For `Fc1nc(NCc2nccs2)c2cc[nH]c2n1` [(379)], the Emax worked out at 95%.

Turning to `Fc1nc(NCc2ccncc2)c2cc[nH]c2n1` [(380)], the EC (maximum kinetin efficacy) was determined as 4.38 µM and the maximum response (Emax) came to 108%.

Consider `Clc1nc(NCc2cscn2)c2nc[nH]c2n1` [(381)], for which the Emax was 63.4%.

As to `FC(F)COc1nc2c(NCc3ccncc3)nc(Cl)nc2[nH]1` [(382)], the EC (maximum kinetin efficacy) is 1.31 µM and the Emax was 193%. As to `COc1cccc(Nc2nc(Cl)nc3[nH]cnc23)c1` [(383)], the maximal response (Emax) was 30.3%. On to `FC(F)COc1nc2c(NCc3ccco3)nc(Cl)nc2[nH]1` [(384)], for which the EC (maximum kinetin efficacy) came out at 1.08 µM and the maximal response (Emax) amounted to 152%. For `COc1nc2c(NCc3nccs3)nc(C#N)nc2[nH]1` [(385)], the Emax turned out to be 46%. In the case of `COc1nc2c(N(CCO)Cc3nccs3)nc(Cl)nc2[nH]1` [(386)], the Emax worked out at 69.2%. `FC1(F)CC(COc2nc3c(NCc4ccco4)nc(Cl)nc3[nH]2)C1` [(387)]: the EC (maximum kinetin efficacy) was determined as 0.33 µM and the maximal effect (Emax) turned out to be 238%.

For `CC(F)(F)COc1nc2c(NCc3nccs3)nc(Cl)nc2[nH]1` [(388)], the EC (maximum kinetin efficacy) was found to be 0.68 µM and the Emax came to 215%. The corresponding values for `CCCOc1nc2c(NCc3cscn3)nc(Cl)nc2[nH]1` [(389)] are 0.73 µM and 211%. On the same counts, the results for `CC(F)(F)COc1nc2c(NCc3ccco3)nc(Cl)nc2[nH]1` [(390)] are 0.74 µM and 201%.

In the case of `FC(F)(F)CCOc1nc2c(NCc3nccs3)nc(Cl)nc2[nH]1` [(391)], the EC (maximum kinetin efficacy) is 1.02 µM and the maximal response (Emax) was found to be 193%. Turning to `FC(F)(F)COc1nc2c(NCc3cscn3)nc(Cl)nc2[nH]1` [(392)], the EC (maximum kinetin efficacy) worked out at 1.9 µM and the Emax was determined as 134%. `CCCOc1nc2c(N(CCO)Cc3nccs3)nc(Cl)nc2[nH]1` [(393)]: the EC (maximum kinetin efficacy) was 7.4 µM and the Emax amounted to 85.2%. In the case of `O=C1OCCN1CCOc1nc2c(NCc3nccs3)nc(Cl)nc2[nH]1` [(394)], the maximum response (Emax) was found to be 4.8%. For `FC(F)COc1nc2c(NCc3cscn3)nc(Cl)nc2[nH]1` [(395)], the EC (maximum kinetin efficacy) came out at 1.8 µM and the Emax turned out to be 180%. Take `O=C1CCCN1CCOc1nc2c(NCc3ccco3)nc(Cl)nc2[nH]1` [(396)]: the maximal response (Emax) amounted to 38.7%. In the case of `CC(=O)NCCOc1nc2c(NCc3nccs3)nc(Cl)nc2[nH]1` [(397)], the Emax is 26.3%. `FC(F)(F)CCOc1nc2c(NCc3ccco3)nc(Cl)nc2[nH]1` [(398)]: the EC (maximum kinetin efficacy) stood at 0.94 µM and the Emax was 176%. For the compound `CC(C)(COc1nc2c(NCc3nccs3)nc(Cl)nc2[nH]1)OCc1ccccc1` [(400)], the maximum response (Emax) amounted to 11.4%.
